Measurements from patent US20160039852A1, “THERAPEUTIC USES OF BISPHOSPHONATES” (THE UNIVERSITY OF SHEFFIELD, priority 2013, published 2016).
Like-named read-outs stand apart in the source and are kept apart here.

Legend:
[1] = tested on: human mesenchymal stem cells (hMSC); assay: Immunostaining of γH2AX DNA damage foci (double stranded breaks) in hMSC; format: cell-based; conditions: for number of γH2AX DNA damage foci after irradiation: 1Gy irradiation, compound at 1 μM, foci at 4 h (Zol also 12, 24 h) versus PBS; for effect of Zol on DNA damage after addition of prenylation intermediate: 1Gy, Zol plus FOH or GGOH (33 μM)
Method: DNA damage was induced by exposing hMSC to ^137Cs Gamma source. Cells were washed with PBS and fixed with 4% Para-formaldehyde for […]. Cells were then washed with PBS permeabilized with 0.5% Triton-X (Sigma, UK) for […] and blocked with 5% normal goat serum (DAKO, Glostrup, Denmark) in PBS for 1 hr. This was followed by incubation with primary antibody, anti-phospho histone H2AX (Ser139) (Millipore, Massachusetts, USA) used at 1:800 in 5% normal goat serum, overnight at 4° C. Cells were then washed in PBS and incubated in secondary Anti mouse IgG Fluorescein Isothiocyanate (FITC) conjugated (Insight Biotechnology, Santa Cruz, USA) at 1:200 in PBS for 1 hour at room temperature. The cover-slips were mounted on slides with mounting media (VectaShield) containing 4',6-diamidino-2-phenylindole (DAPI) to stain the nuclei. […] Cells were viewed using in an Inverted Zeiss LSM 510 NLO microscope equipped with Argon (Ar) laser (488 nm) 30 mW to image the fluorescent marker FITC and UV lamp to image DAPI stained nuclei. Five to seven fields consisting of 25 cells in total were randomly selected from a tile scan (20×) and individual cells viewed at 63× were then scored for γH2AX DNA damage foci using ImageJ 1.45 software (http://rsbweb.nih.gov/ij/). One of the factors affecting cellular lifespan is accumulation of DNA damage.

[2] = tested on: human mesenchymal stem cells (hMSC); assay: hMSC growth kinetics, cumulative population doublings with time in culture; format: cell-based; conditions: for population doublings after which cultures stopped proliferating: hMSC, from the start of the treatment, PBS cultures senesced after 21-25 PDs, n=3; for hMSC life span / time of proliferation in culture: versus PBS control
[3] = target: T1, FPP synthase (Homo sapiens, UniProt P14324); assay: Prenyl synthase assay (FPP synthase activity); format: biochemical
T1 sequence (P14324 1-419): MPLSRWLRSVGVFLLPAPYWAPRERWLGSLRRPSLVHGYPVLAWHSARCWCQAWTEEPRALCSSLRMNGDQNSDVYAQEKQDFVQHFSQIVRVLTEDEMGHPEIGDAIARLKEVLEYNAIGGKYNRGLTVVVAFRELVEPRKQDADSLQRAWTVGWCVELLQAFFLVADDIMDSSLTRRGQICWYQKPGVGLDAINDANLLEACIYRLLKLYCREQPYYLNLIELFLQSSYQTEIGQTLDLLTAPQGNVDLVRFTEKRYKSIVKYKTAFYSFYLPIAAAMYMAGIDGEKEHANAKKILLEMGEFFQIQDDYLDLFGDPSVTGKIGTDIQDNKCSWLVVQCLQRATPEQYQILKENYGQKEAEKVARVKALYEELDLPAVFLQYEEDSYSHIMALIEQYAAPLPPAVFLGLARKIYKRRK
Method: FPP synthase activity was measured by the method of Reed and Rilling (Reed, B. C. & Rilling, H. C. (1976) Biochemistry 15, 3739-3745) with modifications. Assays were set up such that the final volume was 100 ul. The assay conditions were 50 mM Tris pH7.7, 2 mM MgCl2, 0.5 mM TCEP, 20 μg/ml BSA. For FPP synthase assays the final enzyme concentration was 10 nM. All substrates were at 10 μM final concentration each substrate, all reactions were with IPP (14C-IPP, 400Kq/μMol American Radiochem. Corp). For FPP synthase GPP was the second substrate. Bisphosphonate was added as 1/10th volume of a 10× stock solution and allowed to preincubate for 10 minutes with the enzyme in a volume of 80 ul and the reaction started by the addition of 20 ul of the combined substrate. The reaction was allowed to proceed for 4 minutes at 37° C. before being terminated by the addition of 0.2 ml of conc. HCI/Methanol (1:4) and incubated for a further 10 mins at 37° C. The reaction mixtures were then extracted with 0.4 ml of immiscible scintillation fluid (Microscint E, Perkin Elmer) to separate reaction products from unused substrate and were counted directly with a microbeta scintillation counter (Perkin Elmer).

[4] = tested on: zebrafish embryo caudal fin; assay: Zebrafish tail amputation and regeneration following irradiation; format: in vivo, Zebrafish (Danio Rerio H); conditions: irradiated embryos, Zol plus FOH or GGOH
Method: Embryos from wild-type Zebrafish (Danio Rerio H) AB strain were collected at 16 cell stage (˜1.5 hours post fertilisation (hpf)) and grown in E3 Medium at 28° C. Embryos were treated with Zoledronate (1 μM) and/or FOH, GGOH at 24 hpf. DNA damage was induced by exposure to ^137Cs Gamma source at 48 hpf and after irradiation the embryo tails were amputated and the embryos were then incubated at 28° C. for a further 12 hrs in the presence of the chemicals. At the end of this period the chemicals were washed off and the embryos were incubated in fresh medium with no chemicals. The embryos were grown up to 120 hpf, following which they were fixed in 4% PFA overnight and then mounted in 100% glycerol. The tail lengths of embryos were measured taking the anal region as starting reference point and the end of the fin fold as the ending point of measurement.

NCCCC(O)(P(=O)(O)O)P(=O)(O)O [Alendronate]
number of γH2AX DNA damage foci after irradiation [1]: enhance repair of DNA damage
population doublings after which cultures stopped proliferating [2]: 27-30 PDs
hMSC life span / time of proliferation in culture [2]: extend hMSC lifespan

O=P(O)(O)C1CC2CCCNC2C1P(=O)(O)O (stereo not shown) [Compound A, 2-Azabicyclo-[4.3.0]nonane-8,9-diphosphonic acid]
number of γH2AX DNA damage foci after irradiation [1]: significant decrease
number of γH2AX DNA damage foci after irradiation ([1]; listed as compound A): significant reduction in DNA damage
affinity for / inhibitory potency on FPP synthase [3]: high affinity
affinity for / inhibitory potency on FPP synthase ([3]; listed as compound A): high

O=P(O)(O)C1CC2CCCNC2C1P(=O)(O)O (stereo not shown) [Compound B, 2-Azabicyclo-[4.3.0]nonane-8,9-diphosphonic acid]
number of γH2AX DNA damage foci after irradiation [1]: not
affinity for / inhibitory potency on FPP synthase [3]: low affinity
affinity for / inhibitory potency on FPP synthase ([3]; listed as compound B): low

O=P(O)(O)C(F)(Cc1cnc2ccccn12)P(=O)(O)O [Compound C, 1-fluoro-2-(imidazo-[1,2-a]pyridine-3-yl)-ethyl-bisphosphonic acid]
DNA repair (γH2AX DNA damage foci), concentration dependence ([1]; Compound C at increasing concentrations, 4 hours after irradiation): enhances DNA repair in a dose dependent manner
affinity for / inhibitory potency on FPP synthase [3]: high inhibitory potency

CC(C)=CCC/C(C)=C/CC/C(C)=C/CO [FOH, Trans, trans farnesol]
effect of Zol on DNA damage after addition of prenylation intermediate [1]: reversed
Zol-mediated fin repair process after addition of FOH or GGOH [4]: abrogated

CC(C)=CCC/C(C)=C/CC/C(C)=C/CC/C(C)=C/CO [GGOH, geranylgeraniol]
effect of Zol on DNA damage after addition of prenylation intermediate [1]: reversed
Zol-mediated fin repair process after addition of FOH or GGOH [4]: abrogated

O=P(O)(O)C(O)(Cc1cccnc1)P(=O)(O)O [Risedronate]
number of γH2AX DNA damage foci after irradiation [1]: enhance repair of DNA damage
population doublings after which cultures stopped proliferating [2]: 29-34 PDs
hMSC life span / time of proliferation in culture [2]: extend hMSC lifespan
